Reference: patent US12495798B2, “Nicotinamide compound and herbicidal composition comprising compound” (KOREA RESEARCH INSTITUTE OF CHEMICAL TECHNOLOGY, priority 2019, dated 2025)

What was measured:
Type in all cases: in vivo
barnyard grass = assay: Herbicidal activity test against upland field weeds (foliar treatment test); design: key to Foliar treatment herbicidal activity, barnyard grass: 0 (no control); 100 (complete control); conditions: 50 g ai/ha, scale 0-100; for pest or weed control at 50 g/ha: Echinochloa crus-galli
Protocol: (§1) Experimental Example 1: Herbicidal Activity Test Against Upland Field Weeds (Foliar Treatment Test) Foliar treatment was performed as follows: After filling a square plastic pot having a surface area of 350 cm^2 with horticultural soil, seeds (10˜15 grains) or rootstocks (2 pieces) of 5 kinds of grassy weeds of sorghum, barnyard grass, quack grass, crabgrass, fall panicum, and 5 kinds of broadleaf weeds of black nightshade, indian jointvetch, velvetleaf, cocklebur, bindweed, which had been stored in a low temperature (6° C.), were sown. After growing for a certain period in greenhouse conditions (average temperature 30±5° C., light/dark=14/10 hours), test compound solutions were made by diluting with a preparation solution (including 50% acetone, 0.1% Tween-20) so that the final treatment amount of the test compounds was 50 or 75 g a.i./ha. The prepared test compound solution was used for treating foliage by hand-spraying 14 mL per pot in a fume hood. After the treatment, it was managed under the same greenhouse conditions as above, and after 14 days (after 21 days if necessary), the external symptoms and efficacy were investigated according to the scale of 0 (no control) to 100 (complete control). The results of Table 7 were obtained by evaluating weed control value to the untreated control by conducting visual assessment.

black nightshade = assay: as above; design: key to Foliar treatment herbicidal activity, black nightshade: 0 (no control); 100 (complete control); conditions: 50 g ai/ha, scale 0-100; for pest or weed control at 50 g/ha: Solanum nigrum
Protocol: as §1

sorghum = assay: as above; design: key to Foliar treatment herbicidal activity, Sorghum: 0 (no control); 100 (complete control); conditions: 50 g ai/ha, scale 0-100; for plant injury at 50 g/ha: Sorghum
Protocol: as §1

indian jointvetch = assay: as above; design: key to Foliar treatment herbicidal activity, Indian jointvetch: 0 (no control); 100 (complete control); conditions: 50 g ai/ha, scale 0-100
Protocol: as §1

bindweed = assay: as above; conditions: 50 g ai/ha, scale 0-100
Protocol: as §1

corn = assay: Phytotoxicity test for upland field crops (foliar treatment test); design: key: 0 (no harm); 9 (complete withered)
Protocol: (§2) Experimental Example 3: Phytotoxicity Test for Upland Field Crops (Foliar Treatment Test)
(§3) Foliar treatment was performed for grown crops and weeds in a square plastic pot having a surface area of 50 cm^2 filled with horticultural soil. As a fertilizer per pot, 0.5 g of horticultural mixed fertilizer (N:P:K=17:21:17) was treated by mixing in the upper soil. Five kinds of crops such as rice, wheat, corn, soybean, and cotton were sown in each pot, and after growing for a certain period in greenhouse conditions (average temperature 30±5° C., light/dark=14/10 hours), test compound solutions were made by diluting with the diluent (33% acetone, 0.1% Tween-20) so that the final treatment amount of the test compounds was 19˜300 g a.i./ha. The prepared test compound solutions were treated using a spray booth (SB6-016) at a treatment amount of 100 ml per 1 m^2 of treatment area. The treated plants were managed under the same greenhouse conditions as above, and external symptoms and phytotoxicity were investigated 7 and 14 days after treatment (after 21 days if necessary). In the evaluation of the phytotoxicity for the crop, the grade of 0 (no harm) to 9 (complete withered) was used. The results of Table 9 were obtained by evaluating crop phytotoxicity value to the untreated control.

wheat = assay: as above; design: key: 0 (no harm); 9 (complete withered)
Protocol: as §2, §3

quack grass = assay: Herbicidal activity test against upland field weeds (foliar treatment test); design: key to Foliar treatment herbicidal activity, quack grass: 0 (no control); 100 (complete control); conditions: 50 g ai/ha, scale 0-100
Protocol: as §1

crabgrass = assay: as above; conditions: 50 g ai/ha, scale 0-100; for pest or weed control at 50 g/ha: Digitaria sanguinalis
Protocol: as §1

cocklebur = assay: as above; conditions: 50 g ai/ha, scale 0-100; for pest or weed control at 50 g/ha: Xanthium strumarium
Protocol: as §1

velvetleaf = assay: as above; conditions: 50 g ai/ha; for pest or weed control at 50 g/ha: Abutilon theophrasti, scale 0-100, read-out: Foliar treatment herbicidal activity, velvet leaf
Protocol: as §1

fall panicum = assay: as above; conditions: 50 g ai/ha, scale 0-100; for pest or weed control at 50 g/ha: Panicum dichotomiflorum
Protocol: as §1

[1] = 50 g ai/ha, Corn (7 days after treatment)
[2] = 50 g ai/ha, Corn (14 days after treatment)
[3] = 100 g ai/ha, Corn (7 days after treatment)
[4] = 100 g ai/ha, Corn (14 days after treatment)
[5] = 50 g ai/ha, Wheat (7 days after treatment)
[6] = 50 g ai/ha, Wheat (14 days after treatment)
[7] = 100 g ai/ha, Wheat (7 days after treatment)
[8] = 100 g ai/ha, Wheat (14 days after treatment)

| SMILES | Foliar treatment herbicidal activity, black nightshade (black nightshade) | Foliar treatment phytotoxicity, Corn (corn; [1]) | Foliar treatment phytotoxicity, Corn (corn; [2]) | Foliar treatment phytotoxicity, Corn (corn; [3]) | Foliar treatment phytotoxicity, Corn (corn; [4]) | Foliar treatment phytotoxicity, Wheat (wheat; [5]) | Foliar treatment phytotoxicity, Wheat (wheat; [6]) | Foliar treatment phytotoxicity, Wheat (wheat; [7]) | Foliar treatment phytotoxicity, Wheat (wheat; [8]) | Foliar treatment herbicidal activity, quack grass (quack grass) | pest or weed control at 50 g/ha (barnyard grass) [%] | plant injury at 50 g/ha (sorghum) [%] | pest or weed control at 50 g/ha (bindweed) [%] | pest or weed control at 50 g/ha (crabgrass) [%] | pest or weed control at 50 g/ha (cocklebur) [%] | pest or weed control at 50 g/ha (velvetleaf) [%] | pest or weed control at 50 g/ha (fall panicum) [%] | pest or weed control at 50 g/ha (indian jointvetch) [%] | further results |
| --- | --- | --- | --- | --- | --- | --- | --- | --- | --- | --- | --- | --- | --- | --- | --- | --- | --- | --- | --- |
| CCCn1nnnc1NC(=O)c1ccc(C(F)(F)F)nc1COCc1nc(C(F)F)n(C)n1 [Compound No. 2-124] | 95 | 2 | 1 | 3 | 2 | 0 | 1 | 1 | 1 | 20 |  |  |  |  |  |  |  |  | Foliar treatment herbicidal activity, barnyard grass (barnyard grass): 90; Foliar treatment herbicidal activity, Sorghum (sorghum): 40; Foliar treatment herbicidal activity, Indian jointvetch (indian jointvetch): 60; Foliar treatment herbicidal activity, Bindweed (bindweed): 70; Foliar treatment herbicidal activity, Crabgrass (crabgrass): 95; Foliar treatment herbicidal activity, Cocklebur (cocklebur): 80; Foliar treatment herbicidal activity, velvet leaf (velvetleaf; scale 0-100): 60; Foliar treatment herbicidal activity, Fall panicum (fall panicum): 90 |
| C=C(C)c1nc(COCc2nc(C(F)(F)F)ccc2C(=O)Nc2nnnn2C)nn1C [Compound No. 2-128, N-(1-methyl-1H-tetrazol-5-yl)-2-(((1-methyl-5-(prop-1-en-2-yl)-1H-1,2,4-triazol-3-yl)methoxy)methyl)-6-(trifluoromethyl)nicotinamide] |  | 1 | 0 | 2 | 0 | 0 | 0 | 0 | 0 | 0 | 60 | 20 | 40 | 60 | 50 | 70 | 70 |  | pest or weed control at 50 g/ha (black nightshade): 90%; Foliar treatment herbicidal activity, Indian jointvetch (indian jointvetch): 0 |
| C=Cc1nc(COCc2nc(C(F)(F)F)ccc2C(=O)Nc2nnnn2C)nn1C [Compound No. 2-127, N-(1-methyl-1H-tetrazol-5-yl)-2-(((1-methyl-5-vinyl-1H-1,2,4-triazol-3-yl)methoxy)methyl)-6-(trifluoromethyl)nicotinamide] |  | 0 | 0 | 0 | 0 | 0 | 0 | 0 | 0 | 0 | 60 | 30 | 50 | 60 | 60 | 30 | 40 | 20 | pest or weed control at 50 g/ha (black nightshade): 80% |
| CCn1nnc(COCc2nc(C(F)(F)F)ccc2C(=O)Nc2nnnn2CC)n1 [Compound No. 2-88, N-(1-ethyl-1H-tetrazol-5-yl)-2-(((2-ethyl-2H-tetrazol-5-yl)methoxy)methyl)-6-(trifluoromethyl)nicotinamide] | 100 | 0 | 0 | 0 | 0 | 0 | 0 | 0 | 0 | 0 |  |  | 70 | 20 | 70 | 70 | 40 | 60 | Foliar treatment herbicidal activity, barnyard grass (barnyard grass): 0; Foliar treatment herbicidal activity, Sorghum (sorghum): 0 |
| CCCn1nnnc1NC(=O)c1ccc(C(F)(F)F)nc1COCc1nc(C(F)(F)F)n(C)n1 [Compound No. 2-120, 2-(((1-methyl-5-(trifluoromethyl)-1H-1,2,4-triazol-3-yl)methoxy)methyl)-N-(1-propyl-1H-tetrazol-5-yl)-6-(trifluoromethyl)nicotinamide] | 100 | 0 | 0 | 0 | 0 | 0 | 0 | 0 | 0 |  | 80 | 10 | 50 | 95 | 90 | 80 | 90 | 60 | pest or weed control at 50 g/ha (quack grass): 10% |
| CCCn1nnnc1NC(=O)c1ccc(C(F)(F)F)nc1COCc1nnn(CC)n1 [Compound No. 2-89, 2-(((2-ethyl-2H-tetrazol-5-yl)methoxy)methyl)-N-(1-propyl-1H-tetrazol-5-yl)-6-(trifluoromethyl)nicotinamide] | 100 | 0 | 0 | 0 | 0 | 0 | 0 | 0 | 0 | 0 | 95 | 50 | 70 | 60 | 90 | 50 | 90 | 40 |  |
| COCn1nnc(COCc2nc(C(F)(F)F)ccc2C(=O)Nc2nnnn2C)n1 [Compound No. 2-91, 2-(((2-(methoxymethyl)-2H-tetrazol-5-yl)methoxy)methyl)-N-(1-methyl-1H-tetrazol-5-yl)-6-(trifluoromethyl)nicotinamide] | 100 | 2 | 1 | 3 | 3 | 0 | 0 | 0 | 0 | 0 | 80 | 50 | 70 | 90 | 98 | 98 | 70 | 95 |  |
